1 compound from publication PMC8016939 (2021) can be followed below.

Assay [1] deals with Baby Spinach (bSP) (RNA, aptamer) GGUGAAGGACGGGUCCAGUAGUUCGCUACUGUUGAGUAGAGUGUGAGCUCC
In words: fluorescence titration, 1:1 model. Conditions: 50 mM KCl, 5 mM MgCl2; 10 mM HEPES pH 7.5, 2 µM DFHBI, flow-cell; apparent (one-site model).

Assay [2] shares this test system. In words: fluorescence titration plus absorption spectra, multiple-site model. Conditions: 50 mM KCl, 5 mM MgCl2; 10 mM HEPES pH 7.5, 2 µM DFHBI, flow-cell; site 1 of 2 (fluorescent complex); derived as K x p, p = 1.8.

With `CC1=N/C(=C\c2cc(F)c(O)c(F)c2)C(=O)N1C`, the Kd was found to be 4.4 µM in assay [1] and 7.9 ± 0.2 µM in assay [2].
